Assay: Tank mixing compatibility: 5% suspension of water-dispersible granules in CIPAC D water mixed with 1% Solvesso 200, stored, solid residue on 75 μm sieve determined
Type: physicochemical
Procedure: Comparison of the Tank Mixing Compatibility: For this purpose, both water-dispersible granules of the above composition, comprising anhydrate of the compound of the formula I of modification I (formulation A), and water-dispersible granules of anhydrate of the compound of the formula I of modification II (formation B) were prepared. A 5% strength suspension of the respective water-dispersible granules in CIPAC D water (Ca^++/Mg^++ (4:1) hardness of 342 ppm and pH of from 6.0 to 7.0 was then prepared. This suspension was then mixed with 1% of Solvesso 200 (mixture of aromatic hydrocarbons) as a typical solvent for solvent-containing liquid formulations (e.g. EC). The corresponding spray liquor was then stored over a certain period at a certain temperature. For assessing the quality, the solid residue on a 75 μm sieve was determined after the storage.

O=C(Nc1ccccc1-c1ccc(Cl)cc1)c1cccnc1Cl [modification II, 2-chloro-N-(4′-chlorobiphenyl-2-yl)-nicotinamide]
crystal growth in the presence of solvents: scarcely any crystal growth

Source: US7501384B2, “Crystalline modification of the anhydrate of boscalid” (BASF Aktiengesellschaft, priority 2003, dated 2009)
